Structures are written as SMILES.

The target of the test is PD-L1 protein (Homo sapiens, UniProt Q9NZQ7). The experiment in a line: TR-FRET in vitro affinity assay (IC50). As to conditions: PD-L1-biotin / PD-1-Eu. Type of test: binding. As to the method: Fig. S3. HPLC analysis of HYNIC-WL12 (tR = 14.29 min, purity 95.84%).
In Vitro Affinity Assay: Determination of IC50
The affinity of WL12 and HYNIC-WL12 for the PD-L1 protein was determined via a time-resolved fluorescence energy transfer (TR-FRET) assay. In brief, 200 nL of WL12 or HYNIC-WL12 solutions at different concentrations (from 0.5-10000 nM) in 10% ethanol were transferred to 384-well plates on an Echo550 […]
instrument. Then, 5 µL of PD-L1-biotin solution was added, and the plates were centrifuged at 1000 rpm for 30 s and incubated at room temperature. After incubation for 15 min, the mixed solution containing PD-1-Eu and dye-labeled acceptor was added. Then, the plates were centrifuged at 1000 rpm for 30 s and incubated for 90 min at room temperature. Finally, the 665 nm-to-615 nm ratios were read on a microplate reader, and the IC50 values of the two peptides were calculated. […]
For RP-HPLC analysis of [99mTc]Tc-HYNIC-WL12-tricine/M, phase A was water containing 0.1% trifluoroacetic acid (TFA), and phase B was acetonitrile containing 0.1% trifluoroacetic acid (TFA). […] Additionally, the radiochemical purity of [99mTc]Tc-HYNIC-WL12-tricine/M was determined by instant thin layer chromatography on silica gel (iTLC-SG, Agilent, China) using acid-citrate-dextrose solution (ACD solution, pH = 4.5-5.5) as the mobile phase solvent. […]
Effect of HYNIC-WL12 Quantities on the Radiochemical Yield […]

PD-L1 protein, sequence (Q9NZQ7 19-238 limits assumed): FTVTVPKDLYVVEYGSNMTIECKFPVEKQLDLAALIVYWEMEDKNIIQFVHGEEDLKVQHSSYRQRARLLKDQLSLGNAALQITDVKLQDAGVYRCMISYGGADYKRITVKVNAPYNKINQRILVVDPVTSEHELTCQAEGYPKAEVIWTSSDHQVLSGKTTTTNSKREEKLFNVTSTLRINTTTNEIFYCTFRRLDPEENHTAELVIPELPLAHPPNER

On to `CCCC[C@H]1C(=O)N(C)[C@@H](CCCC)C(=O)N[C@@H](CCCNC(=O)c2ccc(NN)nc2)C(=O)N[C@H](C(=O)NCC(N)=O)CSCC(=O)N[C@@H](Cc2ccc(O)cc2)C(=O)N(C)[C@@H](C)C(=O)N[C@@H](CC(N)=O)C(=O)N2CCC[C@H]2C(=O)N[C@@H](Cc2c[nH]cn2)C(=O)N[C@@H](CC(C)C)C(=O)N2C[C@H](O)C[C@H]2C(=O)N[C@@H](Cc2c[nH]c3ccccc23)C(=O)N[C@@H](CO)C(=O)N[C@@H](Cc2cn(C)c3ccccc23)C(=O)N1C` [HYNIC-WL12], for which the IC50 was determined as 170 nM.

For orientation: IC50 means the concentration that gives 50% inhibition.

For the origin of these results see publication PMC11279916, “Application of ^99mTc-Labeled WL12 Peptides as a Tumor PD-L1-Targeted SPECT Imaging Agent: Kit Formulation, Preclinical Evaluation, and Study on the Influence of Coligands” (Pharmaceuticals, 2024).
